Numbers after ± are expanded uncertainties.
Legend:
[1] = refractive index (Na D-line) (dimensionless); conditions: 298.15 K; 101.33 kPa; Liquid; Standard Abbe refractometry
[2] = Liquid; for mass density: 101.33 kPa, Pycnometric method; for vapor or sublimation pressure: Isoteniscope

Row | Structure (SMILES) | refractive index [1] | mass density ([2]; 298.15 K) | vapor or sublimation pressure ([2]; 298.15 K) | vapor or sublimation pressure ([2]; 308.15 K) | vapor or sublimation pressure ([2]; 318.15 K)
1 | CC(Cl)(Cl)Cl [1,1,1-trichloroethane] | 1.4354 ± 0.0004 | 1328.7 ± 0.6 kg/m3 | 16.64 ± 0.19 kPa | 25.85 ± 0.22 kPa | 37.61 ± 0.25 kPa
2 | CCCCCl [1-chlorobutane] | 1.3991 ± 0.0004 | 880.9 ± 0.4 kg/m3 | 13.72 ± 0.15 kPa | 20.66 ± 0.19 kPa | 31.46 ± 0.23 kPa
3 | O=C1CCCCC1 [cyclohexanone] | 1.4482 ± 0.0004 | 943 ± 0.4 kg/m3 | 0.64 ± 0.05 kPa | 1.16 ± 0.06 kPa | 1.92 ± 0.06 kPa
